{
  "source": "paper PMC6727040",
  "about": "“Identification of a Novel Functional Corticotropin-Releasing Hormone (CRH2) in Chickens and Its Roles in Stimulating Pituitary TSHβ Expression and ACTH Secretion” (Frontiers in Endocrinology, 2019)",
  "key": {"chicken CRHR1 (cCRHR1)": {"molecular_target": "T1, chicken CRHR1 (cCRHR1) (Gallus gallus, UniProt Q90812)", "T1 construct": "expressed in transfected cells; host or cells: CHO cells, transient transfection (the control used the empty pcDNA3.1(+) vector)", "T1 sequence (Q90812 29-420)": "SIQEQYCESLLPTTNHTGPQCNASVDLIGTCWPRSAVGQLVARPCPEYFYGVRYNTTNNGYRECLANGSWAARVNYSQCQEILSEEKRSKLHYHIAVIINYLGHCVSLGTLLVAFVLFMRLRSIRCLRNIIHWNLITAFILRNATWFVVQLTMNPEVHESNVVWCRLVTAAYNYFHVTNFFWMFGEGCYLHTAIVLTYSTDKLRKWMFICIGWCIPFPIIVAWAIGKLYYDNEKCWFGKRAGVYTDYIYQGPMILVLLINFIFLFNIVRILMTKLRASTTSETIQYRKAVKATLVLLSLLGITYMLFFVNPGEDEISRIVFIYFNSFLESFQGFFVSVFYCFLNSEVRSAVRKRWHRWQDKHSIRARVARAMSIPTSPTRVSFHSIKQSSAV", "experiment": "pGL3-CRE-luciferase reporter assay in CHO cells expressing cCRHR1", "assay_type": "cell-based", "settings": "CHO cells transiently expressing cCRHR1; peptide 10^−12-10^−6M, 6 h; luciferase as fold of untreated control; N = 3 replicates", "method": "CHO cells were cultured in Dulbecco's Modified Eagle's Medium (DMEM) supplemented with 10% (vol/vol) fetal bovine serum, 100 U/ml penicillin G, and 100 µg/ml streptomycin (HyClone) in a 100 mm dish (Corning) and incubated at 37°C with 5% CO2. As described in our previous study ([35]), the functionality of cCRH2 was examined in CHO cells transiently expressing CRHR1 or CRHR2 by the pGL3-CRE-luciferase reporter system, which was utilized to monitor receptor-mediated activation of the intracellular cAMP/PKA signaling pathway. The luciferase activities in each treatment group were expressed as relative fold increase as compared with that of respective control groups (i.e., without peptide treatment)."}, "chicken pituitary": {"test_system": "chicken pituitary", "settings": "cited from earlier work", "description": "(§1) The relatively high potency of cCRH2 in activating cCRHR2 led us to examine whether like cCRH, cCRH2 can stimulate TSH expression in the chicken pituitary (Figure 8). […] Our finding raises a new concept that apart from CRH, TRH and GCG-like peptide (GCGL) [which are re ..."}, "pituitary [1]": {"test_system": "pituitary", "settings": "cited from earlier work", "description": "However, UCN1 expression could not be detected in the hypothalamus and pituitary stalk ([10], [11]), and the selective receptors for UCN2 and UCN3 were not detected in the pituitary ([12]–[14]), hinting that the actions of ..."}, "pituitary [2]": {"test_system": "pituitary", "settings": "cited from earlier work", "description": "as §1", "remark": "listed apart in the source"}, "CRHR1 and CRHR2": {"test_system": "CRHR1 and CRHR2", "settings": "cited from earlier work", "description": "It has been well-documented that the roles of CRH-related peptides are mediated by two G protein-coupled receptors, namely CRH receptor 1 (CRHR1) and CRH receptor 2 (CRHR2), which share ~68% amino acid identity with each other ([6], [21], [23]). However, these neuropeptides have distinct preference for these two receptors."}},
  "note": "Entries after “also recorded” stand apart in the source; their conditions may differ. Ends that are not written are not given here. Peptide text beside a SMILES is read from it.",
  "data": [
    {"compound": "CC[C@H](C)[C@H](NC(=O)[C@H](CO)NC(=O)[C@H](CCC(N)=O)NC(=O)[C@H](CC(C)C)NC(=O)[C@H](CC(C)C)NC(=O)[C@H](CC(C)C)NC(=O)[C@H](CCCCN)NC(=O)[C@H](CC(N)=O)NC(=O)[C@H](CO)NC(=O)[C@H](CC(C)C)NC(=O)[C@H](C)NC(=O)[C@H](CCCCN)NC(=O)[C@H](CCC(N)=O)NC(=O)[C@H](C)NC(=O)[C@H](CC(C)C)NC(=O)[C@H](CCCNC(=N)N)NC(=O)[C@H](CCC(=O)O)NC(=O)[C@H](CCC(=O)O)NC(=O)[C@H](CCCNC(=N)N)NC(=O)[C@H](CO)NC(=O)[C@H](CCSC)NC(=O)[C@H](CCC(=O)O)NC(=O)[C@H](CC(C)C)NC(=O)[C@H](Cc1ccccc1)NC(=O)[C@H](CCC(=O)O)NC(=O)[C@H](CCCNC(=N)N)NC(=O)[C@H](CC(C)C)NC(=O)[C@H](CC(C)C)NC(=O)[C@H](Cc1c[nH]cn1)NC(=O)[C@H](Cc1ccccc1)NC(=O)[C@@H](NC(=O)[C@H](CC(C)C)NC(=O)[C@H](CC(=O)O)NC(=O)[C@H](CC(C)C)NC(=O)[C@H](CO)NC(=O)[C@H](CC(N)=O)NC(=O)[C@@H]1CCCN1C(=O)[C@H](CCCCN)NC(=O)CNC(=O)[C@@H](N)CCC(=O)O)[C@@H](C)O)C(N)=O", "note": "[cCRH2] (H-EGKPNSLDLTFHLLREFLEMSREERLAQKALSNKLLLQSI-NH2)", "values": [
      {"measurement": "EC50", "setting": "chicken CRHR1 (cCRHR1)", "result": 28.6, "unit": "nM"}
    ]},
    {"compound": "CC[C@H](C)[C@H](NC(=O)[C@@H](NC(=O)[C@H](CCC(=O)O)NC(=O)[C@H](CCSC)NC(=O)[C@H](CC(C)C)NC(=O)[C@H](CCCCN)NC(=O)[C@H](CCCNC(=N)N)NC(=O)[C@H](CC(N)=O)NC(=O)[C@H](CO)NC(=O)[C@H](Cc1c[nH]cn1)NC(=O)[C@H](C)NC(=O)[C@H](CCC(N)=O)NC(=O)[C@H](CCC(N)=O)NC(=O)[C@H](C)NC(=O)[C@H](CC(C)C)NC(=O)[C@H](CCC(N)=O)NC(=O)[C@H](CCC(=O)O)NC(=O)[C@H](C)NC(=O)[C@H](CCCNC(=N)N)NC(=O)[C@H](C)NC(=O)[C@H](CCSC)NC(=O)[C@H](CCC(=O)O)NC(=O)[C@H](CC(C)C)NC(=O)[C@@H](NC(=O)[C@H](CCC(=O)O)NC(=O)[C@H](CCCNC(=N)N)NC(=O)[C@H](CC(C)C)NC(=O)[C@H](CC(C)C)NC(=O)[C@H](Cc1c[nH]cn1)NC(=O)[C@H](Cc1ccccc1)NC(=O)[C@@H](NC(=O)[C@H](CC(C)C)NC(=O)[C@H](CC(=O)O)NC(=O)[C@H](CC(C)C)NC(=O)[C@H](CO)NC(=O)[C@@H](NC(=O)[C@@H]1CCCN1C(=O)[C@@H]1CCCN1C(=O)[C@H](CCC(=O)O)NC(=O)[C@H](CCC(=O)O)NC(=O)[C@@H](N)CO)[C@@H](C)CC)[C@@H](C)O)C(C)C)[C@@H](C)CC)C(N)=O", "note": "[cCRH]", "values": [
      {"measurement": "EC50", "setting": "chicken CRHR1 (cCRHR1)", "result": 0.3, "unit": "nM"}
    ]},
    {"compound": "GCG-like peptide [GCGL]", "values": [
      {"measurement": "chicken pituitary TSH expression/secretion (in words)", "setting": "chicken pituitary", "result": "reported to stimulate chicken pituitary TSH expression/secretion"}
    ]},
    {"compound": "corticotropin-releasing hormone [CRH]", "values": [
      {"measurement": "ACTH secretion and synthesis from the pituitary (in words)", "setting": "pituitary [1]", "result": "stimulates adrenocorticotropic hormone (ACTH) secretion and synthesis from the pituitary"},
      {"measurement": "pituitary TSH secretion and/or expression (in words)", "setting": "pituitary [2]; non-mammalian vertebrates, including birds, amphibians and reptiles", "result": "elevate pituitary thyroid stimulating hormone (TSH) secretion and/or expression"},
      {"measurement": "pituitary TSH secretion and synthesis (in words)", "setting": "pituitary [2]; some non-mammalian vertebrates including chickens", "result": "responsible for stimulating pituitary TSH secretion and synthesis"},
      {"measurement": "activation of both CRH receptors in chickens (in words)", "setting": "CRHR1 and CRHR2", "result": "equipotent activation of both receptors; also recorded: equipotent in activating both receptors"},
      {"measurement": "affinity for CRHR1 versus CRHR2 (in words)", "setting": "CRHR1 and CRHR2; mammals, Xenopus and zebrafish", "result": "higher affinity to CRHR1 than to CRHR2"}
    ]},
    {"compound": "urocortin I (DNPSLSIDLTFHLLRTLLELARTQSQRERAEQNRIIFDSV; ends and bridges not checked; UniProt P55089 83-122, looked up) [UCN1, CRH family peptide urocortin I]", "values": [
      {"measurement": "ACTH-releasing activity in vitro (in words)", "setting": "pituitary [1]; in vitro", "result": "potent ACTH-releasing activity in vitro"},
      {"measurement": "affinity/selectivity for CRHR1 and CRHR2 (in words)", "setting": "CRHR1 and CRHR2", "result": "binds to them with similar affinities"}
    ]},
    {"compound": "urocortin II (IVLSLDVPIGLLQILLEQARARAAREQATTNARILARVGHC; Urocortin-2; UniProt Q96RP3 72-112, looked up) [UCN2, CRH family peptide urocortin II]", "values": [
      {"measurement": "affinity/selectivity for CRHR1 and CRHR2 (in words)", "setting": "CRHR1 and CRHR2", "result": "highly selective for CRHR2"}
    ]},
    {"compound": "urocortin III (FTLSLDVPTNIMNLLFNIAKAKNLRAQAAANAHLMAQI; ends and bridges not checked; UniProt Q969E3 120-157, looked up) [UCN3, CRH family peptide urocortin III]", "values": [
      {"measurement": "affinity/selectivity for CRHR1 and CRHR2 (in words)", "setting": "CRHR1 and CRHR2", "result": "highly selective for CRHR2"}
    ]}
  ]
}
